Laboratory results as given in PubChem BioAssay AID328 (DTP/NCI, 2004).
Values joined by “and” are separate entries in the source; they are usually repeats but may differ in a detail not shown here. Equal entries are not always repeated. Inconclusive results and toxic doses are left out.

Test system: BDF1 mice, P388 leukemia ip, median survival T/C
Experiment: NCI In Vivo Anticancer Drug Screen. Data for tumor model P388 Leukemia (intraperitoneal) in B6D2F1 (BDF1) mice
Conditions: endpoint: median survival time, higher = longer survival
Outline: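 Each value expresses how treatment altered survival: treated-mouse outcome over vehicle-mouse outcome, both groups bearing the transplanted tumour.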

[1] = dose: 50.0 mg/kg/injection, schedule: Q01DX009 (ip), vehicle: saline with Tween-80
[2] = dose: 100.0 mg/kg/injection, schedule: Q01DX009 (ip), vehicle: saline with Tween-80
[3] = dose: 200.0 mg/kg/injection, schedule: Q01DX009 (ip), vehicle: saline with Tween-80

In the case of `COS(C)(=O)=O`, the T/C (dose: 12.5 mg/kg/injection, schedule: Q01DX010 (ip), vehicle: saline) is reported as 100 % of control, the T/C (dose: 25.0 mg/kg/injection, schedule: Q01DX010 (ip), vehicle: saline) is reported as 104 % of control and the T/C (dose: 50.0 mg/kg/injection, schedule: Q01DX010 (ip), vehicle: saline) is reported as 108 % of control.

With `OC/C(=N/Nc1ccc2ccccc2n1)c1ccccc1` the T/C [1] was 114 % of control, the T/C [2] was 117 % of control and the T/C (dose: 100.0 mg/kg/injection, schedule: Q04DX003 (ip), vehicle: saline with Tween-80) was 94 % of control. The T/C [3] was 115 % of control, the T/C (dose: 200.0 mg/kg/injection, schedule: Q04DX003 (ip), vehicle: saline with Tween-80) was 102 % of control and the T/C (dose: 400.0 mg/kg/injection, schedule: Q01DX009 (ip), vehicle: saline with Tween-80) was 88 % of control. The T/C (dose: 400.0 mg/kg/injection, schedule: Q04DX003 (ip), vehicle: saline with Tween-80) was 101 % of control.

`O=C1C(N2CC2)=C(N2CCCC(O)C2)C(=O)C(N2CC2)=C1N1CCCC(O)C1` (centres undefined) was tested, and the T/C (dose: 1.0 mg/kg/injection, schedule: Q01DX009 (ip), vehicle: saline) was 195 % of control and the T/C (dose: 2.0 mg/kg/injection, schedule: Q01DX009 (ip), vehicle: saline) was 99 % of control.

`COc1cc(NC(=O)CC(C)=O)cc2c(C)cc(=O)[nH]c12` was tested, and the T/C (dose: 75.0 mg/kg/injection, schedule: Q04DX003 (ip), vehicle: Klucel (hydroxypropylcellulose) (HPC)) was 91 % of control, the T/C (dose: 150.0 mg/kg/injection, schedule: Q04DX003 (ip), vehicle: Klucel (hydroxypropylcellulose) (HPC)) was 100 % of control and the T/C (dose: 300.0 mg/kg/injection, schedule: Q04DX003 (ip), vehicle: Klucel (hydroxypropylcellulose) (HPC)) was 104 % of control.

In the case of `c1ccc(-c2cc[s+]s2)cc1`, the T/C (dose: 3.12 mg/kg/injection, schedule: Q01DX009 (ip), vehicle: water) is reported as 110 % of control and 114 % of control, the T/C (dose: 6.25 mg/kg/injection, schedule: Q01DX009 (ip), vehicle: water) is reported as 94 % of control and 103 % of control and 120 % of control and the T/C (dose: 12.5 mg/kg/injection, schedule: Q01DX009 (ip), vehicle: water) is reported as 100 % of control and 103 % of control and 123 % of control. For the same compound, the T/C (dose: 12.5 mg/kg/injection, schedule: Q04DX003 (ip), vehicle: water) was 116 % of control, the T/C (dose: 25.0 mg/kg/injection, schedule: Q01DX009 (ip), vehicle: water) was 100 % of control and the T/C (dose: 25.0 mg/kg/injection, schedule: Q04DX003 (ip), vehicle: water) was 104 % of control. The T/C (dose: 50.0 mg/kg/injection, schedule: Q01DX009 (ip), vehicle: water) was 92 % of control and 116 % of control and the T/C (dose: 200.0 mg/kg/injection, schedule: Q04DX003 (ip), vehicle: water) was 101 % of control.

For `CC1(O)CCC2C3CCC4CC(=O)CCC4(C)C3(F)C(O)CC21C` (centres undefined), the T/C (dose: 100.0 mg/kg/injection, schedule: Q01DX001 (ip), vehicle: saline) was 100 % of control, the T/C (dose: 100.0 mg/kg/injection, schedule: Q01DX009 (ip), vehicle: saline) was 90 % of control and the T/C (dose: 100.0 mg/kg/injection, schedule: Q04DX003 (ip), vehicle: saline) was 104 % of control. For the same compound, the T/C (dose: 200.0 mg/kg/injection, schedule: Q01DX001 (ip), vehicle: saline) was 86 % of control, the T/C (dose: 200.0 mg/kg/injection, schedule: Q01DX009 (ip), vehicle: saline) was 109 % of control and the T/C (dose: 200.0 mg/kg/injection, schedule: Q04DX003 (ip), vehicle: saline) was 104 % of control. The T/C (dose: 400.0 mg/kg/injection, schedule: Q01DX001 (ip), vehicle: saline) was 95 % of control, the T/C (dose: 400.0 mg/kg/injection, schedule: Q01DX009 (ip), vehicle: saline) was 113 % of control and the T/C (dose: 400.0 mg/kg/injection, schedule: Q04DX003 (ip), vehicle: saline) was 104 % of control.

For `SC1(SC2(S)CCCCC2)CCCCC1`, the T/C [1] was 100 % of control, the T/C [2] was 100 % of control and the T/C [3] was 100 % of control.

With `CC(=O)SCCC(=O)O` the T/C (dose: 6.25 mg/kg/injection, schedule: Q01DX009 (ip), vehicle: saline with Tween-80) was 109 % of control, the T/C (dose: 6.25 mg/kg/injection, schedule: Q04DX003 (ip), vehicle: saline with Tween-80) was 100 % of control and the T/C (dose: 12.5 mg/kg/injection, schedule: Q01DX009 (ip), vehicle: saline with Tween-80) was 100 % of control. For the same compound, the T/C (dose: 12.5 mg/kg/injection, schedule: Q04DX003 (ip), vehicle: saline with Tween-80) was 95 % of control, the T/C (dose: 25.0 mg/kg/injection, schedule: Q01DX009 (ip), vehicle: saline with Tween-80) was 109 % of control and the T/C (dose: 25.0 mg/kg/injection, schedule: Q04DX003 (ip), vehicle: saline with Tween-80) was 100 % of control.

In the case of `CCOC(=O)C(F)C(Br)C(=O)OCC` (centres undefined), the T/C [1] is reported as 96 % of control and 101 % of control, the T/C [2] is reported as 116 % of control and the T/C [3] is reported as 154 % of control.
